Measurements published in paper PMC12578881, “Pan-cancer Myc modulator that targets Myc-α-tubulin interaction to drive selective mitotic catastrophe” (Scientific Reports, 2025).

How the values were obtained:
[1] = target: T1, c-Myc Micro-Tag (Myc-MicroTag) (Homo sapiens, UniProt P01106); assay: Micro-Tag thermal-shift target engagement (enzyme complementation); assay type: biochemical
T1 construct: 15-residue Micro-Tag at C-terminus; transiently expressed in HEK293; Triton X-100 lysate

[2] = target: T2, recombinant Myc protein (full length c-Myc) (Homo sapiens, UniProt P01106); assay: competitive fluorescence polarization against 10074-G5; assay type: binding; conditions: 10 µM Myc, 10 µM 10074-G5, DL78 20-60 µM, 30 min room temperature; site unproven, competitive or allosteric
T2 construct: full length recombinant protein, gift of A. Chinnaiyan
T2 sequence (P01106 whole entry): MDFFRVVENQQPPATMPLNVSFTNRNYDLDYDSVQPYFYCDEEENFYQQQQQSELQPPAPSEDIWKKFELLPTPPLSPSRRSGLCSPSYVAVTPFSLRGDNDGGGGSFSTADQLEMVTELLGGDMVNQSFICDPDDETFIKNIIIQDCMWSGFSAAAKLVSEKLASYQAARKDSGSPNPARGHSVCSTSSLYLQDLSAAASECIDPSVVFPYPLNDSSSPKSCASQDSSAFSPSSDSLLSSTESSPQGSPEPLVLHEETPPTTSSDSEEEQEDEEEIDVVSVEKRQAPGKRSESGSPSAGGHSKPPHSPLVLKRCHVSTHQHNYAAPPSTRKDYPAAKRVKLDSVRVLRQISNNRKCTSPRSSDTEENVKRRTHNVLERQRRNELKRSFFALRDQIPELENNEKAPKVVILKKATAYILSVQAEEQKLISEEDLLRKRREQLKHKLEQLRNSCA

T1 sequence (P01106 whole entry): as above

EC50 [1]: 1800 nM
Structure (SMILES): COc1ccc2oc(C(=O)c3c(C)oc4ccc(OC)cc34)cc2c1 [DL78, (5-methoxy-2-methylbenzofuran-3-yl)(5-methoxybenzofuran-2-yl)methanone]
competitive fluorescence polarization against 10074-G5 [2]: DL78 competed with 10074-G5 in a dose dependent manner
